Experimental data taken from US8962627B2, “Oxime derivatives and their use as allosteric modulators of metabotropic glutamate receptors” (Prestwick Chemical, Inc., priority 2009, dated 2015).

Columns and labels:
[1] = molecular target: T1, human mGluR4 transiently over-expressed in HEK-293 cells (Homo sapiens, UniProt Q14833); experiment: Human mGluR4 positive allosteric modulator evaluation using Ca++ functional assay; type: cell-based; details: for EC50: HEK-293 cells co-transfected with hmGluR4 and chimeric G protein, EC10 glutamate, intracellular calcium (Fluo4AM), read-out: mean EC50 of agonist/positive allosteric modulator activity on mGluR4
T1 construct: expressed in transfected cells; host or cells: HEK-293 cells, transient co-transfection by electroporation
How it was run: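 Fluo4AM-loaded HEK-293 cells expressing hmGluR4 plus a chimeric G protein were read for intracellular Ca2+ (ex 485, em 525 nm). PAM effect measured as potentiation of EC10 glutamate after a 60 s compound-alone agonist read; EC50 from variable-slope sigmoidal fits of 6–9 doses, duplicates, twice.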

T1 sequence (Q14833 33-912): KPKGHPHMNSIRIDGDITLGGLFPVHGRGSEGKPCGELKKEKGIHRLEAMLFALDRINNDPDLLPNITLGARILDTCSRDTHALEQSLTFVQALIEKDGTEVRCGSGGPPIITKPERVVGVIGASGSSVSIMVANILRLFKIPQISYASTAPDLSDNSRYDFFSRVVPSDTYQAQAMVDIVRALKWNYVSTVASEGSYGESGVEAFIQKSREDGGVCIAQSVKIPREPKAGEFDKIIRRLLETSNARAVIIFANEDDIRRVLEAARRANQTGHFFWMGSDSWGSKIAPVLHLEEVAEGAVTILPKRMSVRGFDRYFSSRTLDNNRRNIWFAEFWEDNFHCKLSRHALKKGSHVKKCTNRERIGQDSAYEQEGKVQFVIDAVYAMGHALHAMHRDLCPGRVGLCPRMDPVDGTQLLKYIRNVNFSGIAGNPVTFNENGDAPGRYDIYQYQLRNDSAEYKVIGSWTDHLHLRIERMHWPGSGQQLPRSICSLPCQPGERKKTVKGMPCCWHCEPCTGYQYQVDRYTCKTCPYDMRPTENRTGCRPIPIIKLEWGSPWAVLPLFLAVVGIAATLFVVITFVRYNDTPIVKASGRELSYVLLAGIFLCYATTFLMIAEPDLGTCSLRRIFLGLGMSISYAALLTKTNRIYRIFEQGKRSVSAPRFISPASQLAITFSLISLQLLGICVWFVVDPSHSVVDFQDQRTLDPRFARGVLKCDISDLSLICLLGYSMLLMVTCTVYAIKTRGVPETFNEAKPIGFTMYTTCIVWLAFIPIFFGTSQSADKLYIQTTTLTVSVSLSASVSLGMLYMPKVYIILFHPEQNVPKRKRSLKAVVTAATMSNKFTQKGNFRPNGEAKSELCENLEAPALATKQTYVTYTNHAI

Compound | melting point | EC50 [1] [nM] | PAM activity on mGluR4 ([1]; up to 100 μM)
Cn1ccc2cc(-c3cc(=NO)c4ccccc4o3)ncc21 [Example 77, 2-(1-Methyl-1H-pyrrolo[2,3-c]pyridin-5-yl)-chromen-4-one oxime] | 270 to 275 °C (dec.) | < 5000 | –
COCCOc1ccc2oc(-c3cc4ccccc4cn3)cc(=NO)c2c1 (mixture of isomers) [Example 43, 2-isoquinolin-3-yl-6-(2-methoxy-ethoxy)-chromen-4-one oxime] | 198 to 204 °C | < 1000 | –
CN(C)C1CCN(CCOc2ccc3oc(-c4cc5cccn5cn4)cc(=NO)c3c2)CC1.Cl.Cl [Example 99, 6-[2-(4-dimethylamino-piperidin-1-yl)-ethoxy]-2-pyrrolo[1,2-c]pyrimidin-3-yl-chromen-4-one oxime, dihydrochloride] | > 255 °C (dec.) | < 1000 | –
ON=c1cc(-c2cc3ccccc3cn2)oc2cc(C#Cc3ccccn3)ccc12 [Example 24, 2-isoquinolin-3-yl-7-(pyridin-2-yl-ethynyl)-chromen-4-one oxime] | 248 to 251 °C | < 5000 | –
COCCOCC#Cc1ccc2c(=NO)cc(-c3cc4ccccc4cn3)oc2c1 (mixture of isomers) [Example 54, 2-Isoquinolin-3-yl-7-[3-(2-methoxy-ethoxy)-prop-1-ynyl]-chromen-4-one oxime] | 158 to 160 °C | < 5000 | –
C=CC#Cc1ccc2c(=NO)cc(-c3cc4ccccc4cn3)oc2c1 (mixture of isomers) [Example 55, 7-but-3-en-1-ynyl-2-Isoquinolin-3-yl-chromen-4-one oxime] | > 210 °C (dec.) | < 5000 | –
Cc1ccc2cnc(-c3cc(=NO)c4ccccc4o3)cc2c1 (mixture of isomers) [Example 15, 2-(6-methyl-isoquinolin-3-yl)-chromen-4-one oxime] | 245 to 247 °C | < 5000 | –
COc1ccc2c(=NO)cc(-c3cc4ccccc4cn3)oc2c1 (mixture of isomers) [Example 56, 2-isoquinolin-3-yl-7-methoxy-chromen-4-one oxime] | 246 to 248 °C | < 5000 | –
ON=c1cc(-c2ccc3ccccc3n2)oc2ccccc12 [Example 79, 2-Quinolin-2-yl-chromen-4-one oxime] | 232 to 235 °C | – | no PAM activity

The next lines start with the values.

melting point | EC50 [1] [nM] | PAM activity on mGluR4 ([1]; up to 100 μM) | Compound
248 to 250 °C | < 1000 | – | ON=c1cc(-c2cn3cccc3cn2)oc2ccc(OCCc3ccc(F)cc3)cc12 [Example 126, 6-[2-(4-Fluoro-phenyl)-ethoxy]-2-pyrrolo[1,2-a]pyrazin-3-yl-chromen-4-one oxime]
190 to 195 °C | < 1000 | – | Cl.ON=c1cc(-c2cc3cccn3cn2)oc2ccc(OCCN3CCCC(F)(F)C3)cc12 [Example 114, 6-[2-(3,3-difluoro-piperidin-1-yl)-ethoxy]-2-pyrrolo[1,2-c]pyrimidin-3-yl-chromen-4-one oxime, hydrochloride]
155 to 160 °C | < 1000 | – | COCCN(CCOC)CCOc1ccc2oc(-c3cc4cccn4cn3)cc(=NO)c2c1.Cl [Example 104, 6-(2-[bis-(2-methoxy-ethyl)-amino]-ethoxy)-2-pyrrolo[1,2-c]pyrimidin-3-yl-chromen-4-one oxime, hydrochloride]
200 to 205 °C | < 1000 | – | Cl.ON=c1cc(-c2cc3cccn3cn2)oc2cccc(OCCN3CCOCC3)c12 [Example 156, 5-(2-Morpholin-4-yl-ethoxy)-2-pyrrolo[1,2-c]pyrimidin-3-yl-chromen-4-one oxime, hydrochloride]
258 to 260 °C | < 1000 | – | Cl.ON=c1cc(-c2cc3ccsc3cn2)oc2ccc(OCCN3CCOCC3)cc12 [Example 158, 6-(2-Morpholin-4-yl-ethoxy)-2-thieno[2,3-c]pyridin-5-yl-chromen-4-one oxime, hydrochloride]
